Experimental data reported in patent US20150004697A1, “METHOD FOR PRODUCING MULTIPOLAR CELL” (TOAGOSEI CO., LTD., priority 2011, published 2015).

How the values were obtained:
Type in all cases: cell-based
[1] = test system: human alveolar basal epithelial adenocarcinoma cells, A549; experiment: Multipolarity-inducing activity assay 3 (A549 cells synchronized in G2 phase (or M phase)); conditions: peptide 10 μM; for Multipolar level (%): 100 M-phase cells; for fluorescence microscope observation of centrosomes and multipolar spindles: DAPI, anti-tubulin and anti-centrin antibody
Method: Some of the sample peptides obtained in Example 1 were tested for multipolarity-inducing activity against target cultured tumor cells. Details of the assay are as described below. As the tumor cells tested, cells forming a […] (human alveolar basal epithelial adenocarcinoma cells, A549) were used. The cell line was cultured in the same manner as Example 2 described above. The resulting cultured tumor cells were synchronized in the G2 phase (or M phase) in the same manner as Example 3 described above. Similarly to Examples 2 and 3 described above (although the number of M-phase cells was 100), the presence of multipolarity was observed by immunofluorescence under fluorescence microscope. In addition, using centrin-2 as a marker for centrosomes (centrioles), the cells were tested for the presence of centrin-2 (i.e. the presence of centrosomes) by immunofluorescence with an anti-centrin-2 antibody (primary antibody) to identify the centrin-2 and a fluorescent dye-labeled secondary antibody to identify the primary antibody.

HeLa cell line (HeLa S3) [2] = experiment: Multipolarity-inducing activity assay 2 (cells synchronized in G2 phase (or M phase) by nocodazole); conditions: for Multipolar level (%): peptide 10 μM for 4 hours with nocodazole, then 2 hours without, % of M-phase cells; for Multipolar level (%) / Number of multipolar cells: HeLa S3 synchronized in G2 phase (M phase); for Number of multipolar cells / fluorescence microscope observation of centrosomes and multipolar spindles: peptide 10 μM; for Number of multipolar cells: count among 75 M-phase cells; for fluorescence microscope observation of centrosomes and multipolar spindles: HeLa synchronized in G2 phase (or M phase) by nocodazole, DAPI and anti-tubulin antibody
Method: The same sample peptides as those used in Example 2 above were used and tested for multipolarity-inducing activity against cultured tumor cells synchronized in the G2 phase (or M phase). Details of the assay are as described below.
As the tumor cells tested, a HeLa cell line (HeLa S3) was used. The cell line was cultured under the same conditions as Example 2 and seeded at about 3×10^4 cells per well in an 8-well slide glass. Thymidine was added to the culture medium to a final concentration of 2.5 mM. Incubation was carried out at 37° C. under 5% CO2 for 18 hours. The culture medium was exchanged to remove thymidine and incubation was carried out for 6 more hours. Subsequently, nocodazole was added to a final concentration of 0.1 μg/mL and incubation was carried out for 16 hours. By such addition of nocodazole, the cells being cultured were synchronized in the G2 phase (M phase) of the cell cycle.
After the 16 hours of incubation, without exchanging the culture medium (i.e. with nocodazole being contained), one of the sample peptides was added to each well to a peptide concentration in the well of 10 μM and incubation was carried out for 4 hours. Subsequently, the culture medium was exchanged and incubation was continued for 2 more hours without nocodazole or the sample peptide.
After the 2 hours of incubation, in the same manner as Example 2, the presence of multipolarity was observed by immunofluorescence under fluorescence microscope.

HeLa cell line (HeLa S3) [3] = experiment: Multipolarity-inducing activity assay 1 (cells synchronized in G1 phase by double thymidine block); conditions: peptide 10 μM, 6 hours of incubation; for Number of multipolar cells: HeLa S3 synchronized in G1 phase, count among the M-phase cells observed
Method: Some of the sample peptides obtained in Example 1 were tested for multipolarity-inducing activity against target cultured tumor cells. Details of the assay are as described below.
As the tumor cells tested, a HeLa cell line (HeLa S3) was used. The cell line was cultured beforehand in a DMEM medium (i.e. Dulbecco MEM medium (DMEM medium, a Gibco product) containing 10% fetal bovine serum (FBS, a Gibco product), 2 mM of L-glutamine, 50 unit/mL of penicillin, and 50 μg/mL of streptomycin), and seeded at about 3×10^4 cells per well in an 8-well slide glass. Thymidine was added to the culture medium to a final concentration of 2.5 mM. Incubation was carried out at 37° C. under 5% CO2 for 16 hours. The culture medium was exchanged to remove thymidine and incubation was carried out for 8 more hours. Subsequently, thymidine was added again to a final concentration of 2.5 mM and incubation was carried out for 16 hours.
By such double thymidine block, the cells being cultured were synchronized in the G1 phase of the cell cycle. After such synchronization treatment, the culture medium was exchanged to remove thymidine and incubation was carried out for 2 more hours. Subsequently, one of the sample peptides was added to each well. In this example, one of Samples 1, 4, 8, 9, 12 and 14 was added to a peptide concentration in the well of 10 μM.
After a sample peptide was added as described above, the 8-well slid glass was incubated under the aforementioned conditions for 6 hours.
After 6 hours of incubation, the presence of multipolarity was observed by immunofluorescence under fluorescence microscope. In particular, after 6 hours of incubation following the addition of a sample peptide, the cultured cells were subjected to nuclear staining with DAPI (4′,6-diamidino-2-phenylindole), and using α-tubulin as a marker for spindles, the cells were tested for the presence of tubulin (i.e., the presence of spindles) by immunofluorescence with an anti-tubulin antibody (primary antibody) to identify the tubulin and a fluorescent dye (ALEXA FLUOR(registered trademark) 555)-labeled secondary antibody to identify the primary antibody.

Sequence | Multipolar level (%) [1] [%] | Multipolar level (%) (HeLa cell line (HeLa S3) [2]) | Number of multipolar cells (HeLa cell line (HeLa S3) [2]) | Number of multipolar cells (HeLa cell line (HeLa S3) [3]) | fluorescence microscope observation of centrosomes and multipolar spindles (HeLa cell line (HeLa S3) [2]) | Multipolar level (%) (HeLa cell line (HeLa S3) [3]; HeLa S3 synchronized in G1 phase (double thymidine block), % multipolar cells relative to M-phase cells) | fluorescence microscope observation of centrosomes and multipolar spindles [1]
CEISAKRTC [Sample 7] | 36 |  |  |  |  |  | 
CGHRPYQYC [Sample 4] | 36 | 62.7 | 47 | 6 |  |  | 
CHILHAQAC [Sample 8] | 36 | 68.0 | 51 | 11 |  |  | 
CLAPSPSKC [Sample 2] | 38 |  |  |  |  |  | 
CLAPSPSKCKKRFLRKNDRKKR (CLAPSPSKCKKRTLRKNDRKKR) [Sample 14] | 38 | 61.3 | 46 | 10 |  |  | 
CLTKSYTSC [Sample 12] |  | 64.0 | 48 | 13 | 3 or more centrosomes formed in many cells |  | 
CPRPPSLEC [Sample 9] |  | 73.3 | 55 | 19 | 3 or more centrosomes formed in many cells and a cell with a particularly high degree of multipolarity |  | 
CSSATGKSC [Sample 1] |  | 62.7 | 47 | 7 |  | 8.3 | 
CSYEKRPMC [Sample 11] |  |  |  |  |  |  | 3 or more (typically 4 or more, e.g. 8 or more) centrosomes formed in many cells
CTGHWASEC [Sample 10] | 31 |  |  |  |  |  | 
CTLNSHSNC [Sample 6] | 30 |  |  |  |  |  | 3 or more (typically 4 or more, e.g. 8 or more) centrosomes formed in many cells
